Results on eight compounds are retold here after article PMC5296733, “Functional Coupling of Human Microphysiology Systems: Intestine, Liver, Kidney Proximal Tubule, Blood-Brain Barrier and Skeletal Muscle” (Scientific Reports, 2017).

For series [1], the system named is differentiated human jejunal enteroids.
Excerpt: (§1) Mass spectrometry was used to measure the concentration of compound and metabolites in the media following exposure in each MPS organ module.
(§2) Human jejunal enteroid cultures were isolated from two separate donors as described[59] and maintained in culture as spherical enteroids in Matrigel (Becton Dickinson, Franklin Lakes, NJ) until dissociated and plated as monolayer cultures on collagen IV coated polyethylene terephthalate (PET) Transwell® membrane inserts (Corning, Inc., Corning, NY) (Fig. 1A)[55][59][60][61]. The apical chamber received 100 μl of a 5 × 10^6/mL of the suspended cells in proliferation media. The basolateral chamber received 600 μl of proliferation media. […] Jejunal barrier monolayer with intact tight junctions were established by TEER testing and the restricted diffusion of 4 kD FITC-dextran polymers over the 24 h period (Supplemental Information Supplemental Table S8).
(§3) TMA was prepared at a concentration 3 mM by dissolving the neat compound directly into intestinal apical media. […] The dried residue was solubilized in apical media and mixed by sonication in a water bath for 30 s.
(§4) All treatments were conducted in duplicate modules in each laboratory. […] The apical and basolateral media were collected in glass vials and frozen at −80 °C for MS analysis and transported to UPitt for testing in the SQL-SAL module.
Series [2] relates to static SQL-SAL liver model. The series is described as follows: Static 4-cell SQL-SAL liver in 96-well microplates (vitamin D3). The series is classed as in vitro ADME, human. Conditions: vitamin D3 experiment; 96-well 4-cell liver module, 72 h, media pooled. The method, then: Media without dexamethasone was used to avoid downstream toxicity to the human neurons in the NVU. […]
The intestinal/liver-conditioned media efflux was collected and samples were tested by MS or transported on dry ice for testing in the kidney module, or the BBB/NVU module.
Dexamethasone, normally used to maintain hepatocyte differentiation, was removed from the liver media for functional coupling to avoid downstream toxicity to the human neurons in the NVU. […] Briefly, cryopreserved human hepatocytes were seeded into collagen type 1 coated 96-well plates at 26,000 hepatocytes/well and allowed to attach overnight in hepatocyte plating media (HPM). The HPM was decanted and 1.25x10^5 Ea.Hy.926 endothelial cells and 8 X10^4 differentiated U937 immune cells in MEM media supplemented with 10% FBS and L-Glutamine were added. After 2 h the media was decanted and 40 µL of a slurry of 1.5 mg/mL gelling collagen type 1 in Williams E media with 4 X 10^4 LX-2 stellate cells was added.

The subject of series [3] is blood-brain barrier/neurovascular unit (BBB/NVU). The series is described as follows: BBB/NVU module penetration. Conditions: for Penetration through blood-brain barrier (MPS): BBB/NVU module, TMAO 12 h, others 24 h.
In series [4] the test system is vascularized proximal tubule kidney (VPTK) module. The series is described as follows: Vascularized proximal tubule kidney (VPTK) module secretion. The conditions noted are these: for Excreted into proximal tubule lumen, MPS: Table 2, MPS model.
Description: as §1
To form the vascularized kidney model, 2 lumens were pre-cast side-by-side in gelling collagen inside the Nortis microfluidic device. Human proximal tubule epithelial cells (PTEC) were seeded on the wall of one lumen channel at an approximate density of 20 × 10^6 cells/mL and were allowed to attach for 1 h. Culture media flow at 30 μl/h was then initiated and maintained for 5 days in order to establish a 100% confluent tubule expressing tight junctions. On day 6, the flow of culture media to the PTEC channel was stopped to allow the second channel seeding at 20 × 10^6 human umbilical vein endothelial cells/mL (HUVEC) and allowed to attach for 30–60 minutes. Parallel media flow of defined DMEM/F-12 (see Supplement) with 2% FBS for the PTEC channel and EGM-2 media for HUVEC channel were initiated at a rate of 30 μl/h. The VPTK devices were allowed to stabilize overnight before conducting test compound treatment.
The media for the PTEC channel remained unchanged. Media perfusion was initiated simultaneously for both channels at a flow rate of 60 μl/h. The effluents from both channels were collected for 6 h. Due to the insensitivity of the TMAO analyte by mass spectrometry, an additional TMAO experiment using EGM-2 media supplemented with 5 mM TMAO was conducted in the VPTK to quantitate the level of TMAO secretion.
For series [5] the following is noted: cited from earlier work.
Series [6] has as its system differentiated human jejunal enteroids. Briefly: Intestine module: jejunal enteroid Transwell transport and metabolism. The conditions noted are these: for Concentration in micelle preparation: synthetic micelles containing 100 μM vitamin D3.
Excerpt: as §1, §2, §3, §4
In series [7] the test system is Kidney MPS Organ Module (PTK). The series is described as follows: Vitamin D binding protein as carrier in PTK module. The conditions noted are these: 1 μM 25-(OH) VD3.
Series [8] relates to Liver MPS Organ Module. Briefly: Effect of vitamin D binding protein on recovery and metabolism in liver module. Conditions: for 25-(OH) VD3 formation as % of in vivo rate / 25-(OH) VD3 formation: 0-24 h; for 25-(OH) VD3 formation: 7 μM VitD3. Format: in vitro ADME, human. The method, then:
Media without dexamethasone was used to avoid downstream toxicity to the human neurons in the NVU. […] Media samples were collected after 24 h and 48 h incubations.
Samples from the treatment conditions were collected after 24-h and 48-h incubations and stored in amber glass vials at -80°C for LC-MS/MS analysis.

The subject of series [9] is proximal tubule kidney (PTK) module. Briefly: Proximal tubule kidney (PTK) module, vitamin D3 metabolites.
Description: Briefly, a single 100 μm diameter lumen was pre-cast in gelling collagen inside the microfluidic device and then seeded with passage 5 kidney PTEC to 100% confluence according to established methods[52]. The kidney proximal tubule modules were then perfused (30 μL/h) for 8 days with 100% kidney proximal tubule media prior to perfusion with mixed media solutions.
All media samples were stored in amber glass vials at −80 °C until LC-MS/MS analysis.
Where [10] appears, read: TMA experiment, liver-conditioned media, Brain (12 h).
Where [11] appears, read: kidney perfused at 3.75 X 10^5 ng/ml TMAO spiked media, 0-6 h.
Where [12] appears, read: kidney perfused with liver conditioned media, 0-6 h.
The mark [13] stands for this setting: 3 mM TMA added to apical compartment, 0-24 h.
The mark [14] stands for this setting: 100 μM vitamin D3 micelles apical, 24 h.
[15] abbreviates: 0-48 h, 50% liver-conditioned, N=2.
The mark [16] stands for this setting: liver-conditioned media, 6 h perfusion.
Where [17] appears, read: terfenadine experiment, liver-conditioned media, 0-6 h.

Like-named read-outs stand apart in the source and are kept apart here. Some results are limits rather than exact numbers.

Consider `C=C1/C(=C\C=C2/CCC[C@]3(C)[C@@H]([C@H](C)CCCC(C)(C)O)CC[C@@H]23)C[C@@H](O)C[C@@H]1O` [1α,25-(OH)2 Vitamin D3, 1α,25-(OH)2 vitamin D3], for which the “Concentration in micelle preparation” value in series [1] is listed as “< LOD^2 < LOD < LOD”. Also, the “Concentration in liver efflux media” value in series [2] was found to be 0.0064 ng/mL.
As for `CN(C)C` [TMA, trimethylamine], in [3] (setting [10]), the “Concentration in brain neuronal efflux” value was “< LOQ < LOQ” and the “Concentration in brain vascular efflux” value is on record as “< LOQ < LOQ”. In series [4] (setting [11]), the “Concentration in kidney plasma efflux” value is recorded as “< LOQ < LOQ” and the “Concentration in kidney proximal tubule lumen” value is reported as “< LOQ < LOQ”. In series [4] (setting [12]), the “Concentration in kidney plasma efflux” value was “< LOQ <LOQ” and the “Concentration in kidney proximal tubule lumen” value is “< LOQ <LOQ”. For the same compound, in series [5] (Table 2, clinical), the “Intestine fate, Clinical” value is on record as “Uptake & Transport”; the “Liver metabolism, Clinical” value was “TMA → TMAO”; the “TMA Clearance (liver), Clinical” value was under 5%. Further, the “Share of starting TMA concentration found in basolateral media” value in [6] (316 μg/mL (3 mM) apical, 24 h) is 6%. In addition, the “Concentration in intestine basolateral media” value in series [6] (setting [13]) stood at 19100 ± 2179 ng/mL. In [6] (TMA hydrochloride 316 μg/mL (3 mM) apical, 24 h), the “Concentration in intestine basolateral media” value came to 19100 ± 2200 ng/mL. The “Intestine fate, MPS” value in [6] (Table 2, MPS model) is given as “Uptake & Transport”.
As to `CC(C)(C(=O)O)c1ccc(C(O)CCCN2CCC(C(O)(c3ccccc3)c3ccccc3)CC2)cc1` (centres unmarked) [Fexofenadine, fexofenadine, reference compound], the “Excreted into proximal tubule lumen, MPS” value in series [4] is ~ 1% Fex Excreted. In series [4] (liver-conditioned media, 6 h), the “Share of total fexofenadine found in lumen media” value is recorded as about 1%. In series [5] (Table 2, clinical), the “Excreted into proximal tubule lumen, Clinical” value is listed as 11% Fex Excreted.
For `C=C1CC[C@H](O)C/C1=C/C=C1\CCC[C@]2(C)[C@@H]([C@H](C)CCCC(C)(C)O)CC[C@@H]12` [25-(OH) Vitamin D3, 25-(OH) vitamin D3], the “Penetration through blood-brain barrier (MPS)” value in series [3] (liver-conditioned media) is recorded as “approximately 6%”; in [3] (liver-conditioned media, listed as 25(OH) VD3), 6%. In addition, in series [3] (vitamin D3 experiment, 24 h), the “Concentration in brain neuronal efflux” value worked out at 0.051 ± 0.022 ng/mL. Besides, the “Concentration in brain vascular efflux” value in series [3] (vitamin D3 experiment, 24 h) amounted to 0.82 ± 0.15 ng/mL. Besides, the “25-(OH) VD3 recovery” value in series [7] (48-72 h, Renal Tubular Epithelial Media + 3 μM Vitamin D Binding Protein) is given as 100%; in series [7] (48-72 h, Renal Tubular Epithelial Media + 2% FBS) it was 8%. For the same compound, the “Recovered from syringes and tubing leading up to MPS module” value in series [7] (media + 2% FBS) was determined as 16%. The “Concentration in liver efflux media” value in series [2] came to 3.0 ng/mL. Besides, in series [5] (Table 2, clinical), the “Kidney metabolism, Clinical” value is reported as 25(OH)VD3 → 1α,25(OH)2VD3 & 24,25(OH)2VD3. In series [5] (Table 2, clinical), the “Penetration through blood-brain barrier, Clinical” value is given as “VD3 & 25(OH)VD3 Penetration”. For the same compound, the “Plasma 25-(OH) vitamin D3 transported by DBP” value in series [5] (in humans) is reported as 85–90%. In series [6] (setting [14]), the “Concentration in intestine apical media” value is on record as “< LOQ^1 < LOQ < LOQ”. The “Concentration in intestine basolateral media” value in [6] (setting [14]) is “< LOQ^1 < LOQ < LOQ”. Besides, the “Concentration in micelle preparation” value in series [6] is recorded as “< LOQ^1 < LOQ < LOQ”. Moreover, the “25-(OH) VD3 formation as % of in vivo rate” value in series [8] (3 μM DBP) was 4.9 % of in vivo rate; in series [8] (no DBP), 2.7 % of in vivo rate. Moreover, the figures for the “25-(OH) VD3 formation” value in series [8] (3 μM DBP) and in series [8] (no DBP) were 12.63 pmol/day/10^6 Hepatocytes and 7.00 pmol/day/10^6 Hepatocytes, respectively. Moreover, in [8] (DBP:vitamin D3 3:1 versus no DBP), the “Improvement of formation and recovery of the metabolite with DBP” value is 2–3 fold. Moreover, the “Concentration in kidney efflux media” value in [9] (setting [15]) worked out at 0.12 ng/mL; in series [9] (0-48 h, 80% liver-conditioned), 0.23 ng/mL; in [9] (0-120 h, 50% liver-conditioned), 0.29 ng/mL; in series [9] (0-120 h, 80% liver-conditioned), 0.48 ng/mL. In addition, the “25-(OH) vitamin D3 perfused into the kidney that was unrecoverable” value in series [9] (initial four-organ functional study, no DBP) was found to be 90%.
Turning to `C=C1CCC(O)C/C1=C\C=C1\CCCC2(C)C1CCC2C(C)CCC(O)C(C)(C)O` (centres unmarked) [24,25-(OH)2 Vitamin D3, 24,25-(OH)2 vitamin D3], the “Concentration in brain neuronal efflux” value in series [3] (vitamin D3 experiment, 24 h) is on record as “LOQ”. Moreover, the “Concentration in brain vascular efflux” value in [3] (vitamin D3 experiment, 24 h) stood at 0.079 ± 0.015 ng/mL. The “Metabolite formation in kidney efflux” value in [7] (48-72 h, media + 2% FBS) is reported as 6.80 ± 1.6 pmol/day/ 10^6 Proximal Tubule Cells. Further, the “Concentration in liver efflux media” value in series [2] worked out at 0.25 ng/mL. In addition, in series [6] (setting [14]), the “Concentration in intestine apical media” value is on record as “< LOD^2 < LOD < LOD”. Also, in series [6] (setting [14]), the “Concentration in intestine basolateral media” value is recorded as “< LOD^2 < LOD < LOD”. The “Concentration in micelle preparation” value in [6] is recorded as “< LOD^2 < LOD < LOD”. The “Concentration in kidney efflux media” value in series [9] (setting [15]) is 0.082 ng/mL; in series [9] (0-48 h, 80% liver-conditioned) it was 0.12 ng/mL; in series [9] (0-120 h, 50% liver-conditioned), 0.11 ng/mL; in series [9] (0-120 h, 80% liver-conditioned) it was 0.16 ng/mL.
`C=C1CC[C@H](O)[C@H](O)/C1=C/C=C1\CCC[C@]2(C)[C@@H]([C@H](C)CCCC(C)(C)O)CC[C@@H]12` [4β,25-(OH)2 Vitamin D3, 4β,25-(OH)2 vitamin D3]: in series [3] (vitamin D3 experiment, 24 h), the “Concentration in brain neuronal efflux” value is “LOD”. Also, the “Concentration in brain vascular efflux” value in series [3] (vitamin D3 experiment, 24 h) was found to be 0.0081 ± 0.0029 ng/mL. Further, the “Concentration in liver efflux media” value in [2] amounted to 0.047 ng/mL. Also, the “Concentration in intestine apical media” value in series [6] (setting [14]) is recorded as “< LOD^2 < LOD < LOD”. For the same compound, the “Concentration in intestine basolateral media” value in series [6] (setting [14]) is recorded as “< LOD^2 < LOD < LOD”. Moreover, in series [6], the “Concentration in micelle preparation” value is reported as “< LOD^2 < LOD < LOD”. Also, the “Concentration in kidney efflux media” value in series [9] (setting [15]) was 0.0033 ng/mL; in [9] (0-48 h, 80% liver-conditioned), 0.0064 ng/mL; in [9] (0-120 h, 50% liver-conditioned), 0.0076 ng/mL; in series [9] (0-120 h, 80% liver-conditioned), 0.014 ng/mL.
Turning to `C[N+](C)(C)[O-]` [TMAO, trimethylamine-N-oxide], in series [3] (setting [10]), the “Concentration in brain neuronal efflux” value amounted to 1800 ± 100 ng/mL and the “Concentration in brain vascular efflux” value was 4600 ± 200 ng/mL. Further, in series [3] (TMA experiment, 12 h perfusion), the “Concentration in BBB/NVU neuronal efflux” value came out at 1.8 ± 0.1 µg/mL and the “Concentration in BBB/NVU vascular efflux” value was 4.6 ± 0.2 µg/mL. Besides, the “Excreted into proximal tubule lumen, MPS” value in series [4] is about 46% TMAO Excreted. For the same compound, the “TMAO secreted into the kidney lumen” value in [4] (independent experiment, media with 375 μg/mL TMAO) came out at 46%. Also, in [4] (setting [12]), the “Concentration in kidney plasma efflux” value is 21720 ± 6967 ng/mL and the “Concentration in kidney proximal tubule lumen” value came out at 450 ± 290 ng/mL. For the same compound, in series [4] (setting [16]), the “Share of TMAO found in lumenal media” value was found to be 5% and the “Share of TMAO found in vascular media” value worked out at 95%. In series [5] (Table 2, clinical), the “Excreted into proximal tubule lumen, Clinical” value is on record as over 95% TMAO Excreted. Further, in [6] (setting [13]), the “Concentration in intestine apical media” value is recorded as “< LOQ^1 < LOQ” and the “Concentration in intestine basolateral media” value is “< LOQ^1 < LOQ”.
Take `CC(C)(C)c1ccc(C(O)CCCN2CCC(C(O)(c3ccccc3)c3ccccc3)CC2)cc1` (centres unmarked) [Terfenadine, terfenadine, reference compound]: in series [4] (setting [17]), the “Concentration in kidney plasma (vascular) efflux” value was “< LOQ^2 < LOQ” and the “Concentration in kidney proximal tubule lumen” value is “< LOQ^2 < LOQ”. Also, in [5] (Table 2, clinical), the “Bio T (liver), Clinical” value is on record as under 1% and the “Intestine fate, Clinical” value is given as “Ter → Fex”.
